Results taken from PubChem BioAssay (NCI).
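Briefly, cells in 96-well plates were exposed to five compound concentrations for 48 h, and endpoints were estimated by linear interpolation. Abbreviation: GI50, concentration required for 50% inhibition of growth. At the TGI there is no net growth.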

Legend:
Assay in all cases: DTP human tumour cell line panel, 48 h
OVCAR-8 ovarian = system: OVCAR-8 ovarian
SNB-19 CNS = system: SNB-19 CNS
SNB-75 CNS = system: SNB-75 CNS
CAKI-1 renal = system: CAKI-1 renal
MDA-MB-231 breast = system: MDA-MB-231 breast
OVCAR-5 ovarian = system: OVCAR-5 ovarian
SK-MEL-28 melanoma = system: SK-MEL-28 melanoma
NCI-H226 lung = system: NCI-H226 lung
A549 NSCLC = system: A549 NSCLC
SF-268 CNS = system: SF-268 CNS
U251 CNS = system: U251 CNS
HOP-92 NSCLC = system: HOP-92 NSCLC
TK-10 renal = system: TK-10 renal
RPMI-8226 leukemia = system: RPMI-8226 leukemia
HCT-116 colon = system: HCT-116 colon
MOLT-4 leukemia = system: MOLT-4 leukemia
NCI/ADR-RES ovarian = system: NCI/ADR-RES ovarian
PC-3 prostate = system: PC-3 prostate
SW-620 colon = system: SW-620 colon
LOX IMVI melanoma = system: LOX IMVI melanoma
SF-295 CNS = system: SF-295 CNS
UO-31 renal = system: UO-31 renal
DU-145 prostate = system: DU-145 prostate
MCF7 breast = system: MCF7 breast
HOP-62 NSCLC = system: HOP-62 NSCLC
HCC-2998 colon = system: HCC-2998 colon
COLO 205 colon = system: COLO 205 colon
ACHN renal = system: ACHN renal
SN12C renal = system: SN12C renal
OVCAR-3 ovarian = system: OVCAR-3 ovarian
HS 578T breast = system: HS 578T breast
HT29 colon = system: HT29 colon
NCI-H460 lung = system: NCI-H460 lung
SK-MEL-5 melanoma = system: SK-MEL-5 melanoma
A498 renal = system: A498 renal
K-562 leukemia = system: K-562 leukemia
UACC-257 melanoma = system: UACC-257 melanoma
UACC-62 melanoma = system: UACC-62 melanoma
OVCAR-4 ovarian = system: OVCAR-4 ovarian
MDA-MB-435 = system: MDA-MB-435
SR leukemia = system: SR leukemia
SK-OV-3 ovarian = system: SK-OV-3 ovarian
786-0 renal = system: 786-0 renal
SF-539 CNS = system: SF-539 CNS
SK-MEL-2 melanoma = system: SK-MEL-2 melanoma
NCI-H23 lung = system: NCI-H23 lung
EKVX NSCLC = system: EKVX NSCLC
MALME-3M melanoma = system: MALME-3M melanoma
HCT-15 colon = system: HCT-15 colon
CCRF-CEM leukemia = system: CCRF-CEM leukemia
T-47D breast = system: T-47D breast
BT-549 breast = system: BT-549 breast
KM12 colon = system: KM12 colon
RXF 393 renal = system: RXF 393 renal
M14 melanoma = system: M14 melanoma
IGROV1 ovarian = system: IGROV1 ovarian
NCI-H522 lung = system: NCI-H522 lung

## O=C(COc1ccc(/C=C2\Oc3ccccc3C2=O)cc1)Nc1nccs1
OVCAR-8 ovarian
  GI50: > 100 µM
  TGI: > 100 µM
SNB-19 CNS
  GI50: > 100 µM
  TGI: > 100 µM
SNB-75 CNS
  GI50: 17.4 µM
  TGI: 72.6 µM
CAKI-1 renal
  GI50: 12.1 µM
  TGI: > 100 µM
MDA-MB-231 breast
  GI50: 33.4 µM
  TGI: > 100 µM
OVCAR-5 ovarian
  GI50: > 100 µM
  TGI: > 100 µM
SK-MEL-28 melanoma
  GI50: > 100 µM
  TGI: > 100 µM
NCI-H226 lung
  GI50: 60.3 µM
  TGI: > 100 µM
A549 NSCLC
  GI50: 63.9 µM
  TGI: > 100 µM
SF-268 CNS
  GI50: 36.8 µM
  TGI: > 100 µM
U251 CNS
  GI50: 40.6 µM
  TGI: > 100 µM
HOP-92 NSCLC
  GI50: 1.53 µM
  TGI: 4.85 µM
TK-10 renal
  GI50: 85.1 µM
  TGI: > 100 µM
RPMI-8226 leukemia
  GI50: 4.12 µM
  TGI: > 100 µM
HCT-116 colon
  GI50: 39.1 µM
  TGI: > 100 µM
MOLT-4 leukemia
  GI50: 3.31 µM
  TGI: 19.1 µM
NCI/ADR-RES ovarian
  GI50: 64.9 µM
  TGI: > 100 µM
PC-3 prostate
  GI50: 38.1 µM
  TGI: > 100 µM
SW-620 colon
  GI50: > 100 µM
  TGI: > 100 µM
LOX IMVI melanoma
  GI50: 0.371 µM
  TGI: > 100 µM
SF-295 CNS
  GI50: 41.4 µM
  TGI: > 100 µM
UO-31 renal
  GI50: > 100 µM
  TGI: > 100 µM
DU-145 prostate
  GI50: 71 µM
  TGI: > 100 µM
MCF7 breast
  GI50: 43.2 µM
  TGI: > 100 µM
HOP-62 NSCLC
  GI50: 85.3 µM
  TGI: > 100 µM
HCC-2998 colon
  GI50: > 100 µM
  TGI: > 100 µM
COLO 205 colon
  GI50: > 100 µM
  TGI: > 100 µM
ACHN renal
  GI50: > 100 µM
  TGI: > 100 µM
SN12C renal
  GI50: 76.9 µM
  TGI: > 100 µM
OVCAR-3 ovarian
  GI50: 36.1 µM
  TGI: > 100 µM
HS 578T breast
  GI50: 20.7 µM
  TGI: 80.5 µM
HT29 colon
  GI50: > 100 µM
  TGI: > 100 µM
NCI-H460 lung
  GI50: 88 µM
  TGI: > 100 µM
SK-MEL-5 melanoma
  GI50: 64.4 µM
  TGI: > 100 µM
A498 renal
  GI50: 54.1 µM
  TGI: > 100 µM
K-562 leukemia
  GI50: 60.1 µM
  TGI: > 100 µM
UACC-257 melanoma
  GI50: 39.3 µM
  TGI: > 100 µM
UACC-62 melanoma
  GI50: > 100 µM
  TGI: > 100 µM
OVCAR-4 ovarian
  GI50: 70.4 µM
  TGI: > 100 µM
MDA-MB-435
  GI50: 8.47 µM
  TGI: > 100 µM
SR leukemia
  GI50: 20.8 µM
  TGI: 61 µM
SK-OV-3 ovarian
  GI50: > 100 µM
  TGI: > 100 µM
786-0 renal
  GI50: 54.9 µM
  TGI: > 100 µM
SF-539 CNS
  GI50: 32.5 µM
  TGI: > 100 µM
SK-MEL-2 melanoma
  GI50: 39 µM
  TGI: > 100 µM
NCI-H23 lung
  GI50: 49.8 µM
  TGI: > 100 µM
EKVX NSCLC
  GI50: 51.5 µM
  TGI: > 100 µM
MALME-3M melanoma
  GI50: > 100 µM
  TGI: > 100 µM
HCT-15 colon
  GI50: > 100 µM
  TGI: > 100 µM
CCRF-CEM leukemia
  GI50: 1.52 µM
  TGI: 3.27 µM
T-47D breast
  GI50: 75.4 µM
  TGI: > 100 µM
BT-549 breast
  GI50: 18.5 µM
  TGI: 96.9 µM
KM12 colon
  GI50: 8.08 µM
  TGI: > 100 µM
RXF 393 renal
  GI50: 0.354 µM
  TGI: 15.1 µM

## Cc1cc2cccnc2c2ncccc12
OVCAR-8 ovarian
  GI50: 0.626 µM
  TGI: 11.9 µM
SNB-19 CNS
  GI50: 2.27 µM
  TGI: > 100 µM
SNB-75 CNS
  GI50: 3.24 µM
  TGI: > 100 µM
CAKI-1 renal
  GI50: 0.244 µM
  TGI: 0.758 µM
MDA-MB-231 breast
  GI50: 0.74 µM
  TGI: > 100 µM
OVCAR-5 ovarian
  GI50: 1.35 µM
  TGI: 42.1 µM
SK-MEL-28 melanoma
  GI50: 2.56 µM
  TGI: > 100 µM
NCI-H226 lung
  GI50: 1.33 µM
  TGI: 8.81 µM
A549 NSCLC
  GI50: 0.949 µM
  TGI: 10.6 µM
M14 melanoma
  GI50: 1.26 µM
  TGI: 5.32 µM
SF-268 CNS
  GI50: 0.739 µM
  TGI: 27.7 µM
U251 CNS
  GI50: 0.703 µM
  TGI: 12.1 µM
HOP-92 NSCLC
  GI50: 2.38 µM
  TGI: 17.2 µM
TK-10 renal
  GI50: 0.713 µM
  TGI: 23.9 µM
RPMI-8226 leukemia
  GI50: 2.43 µM
  TGI: 9.07 µM
HCT-116 colon
  GI50: 1.14 µM
  TGI: 7.06 µM
NCI/ADR-RES ovarian
  GI50: 0.315 µM
  TGI: 1.84 µM
PC-3 prostate
  GI50: 1.57 µM
  TGI: 34.4 µM
SW-620 colon
  GI50: 2.34 µM
  TGI: 27.9 µM
LOX IMVI melanoma
  GI50: 0.674 µM
  TGI: 8.6 µM
SF-295 CNS
  GI50: 0.555 µM
  TGI: 4.57 µM
UO-31 renal
  GI50: 0.411 µM
  TGI: 4.15 µM
DU-145 prostate
  GI50: 1.02 µM
  TGI: > 100 µM
MCF7 breast
  GI50: 2.62 µM
  TGI: > 100 µM
HOP-62 NSCLC
  GI50: 1.45 µM
  TGI: > 100 µM
HCC-2998 colon
  GI50: 2.75 µM
  TGI: 68.2 µM
COLO 205 colon
  GI50: 3.4 µM
  TGI: 11.5 µM
ACHN renal
  GI50: 0.46 µM
  TGI: 7.51 µM
SN12C renal
  GI50: 1.18 µM
  TGI: > 100 µM
OVCAR-3 ovarian
  GI50: 1.75 µM
  TGI: 10.3 µM
HS 578T breast
  GI50: 4.04 µM
  TGI: 47.9 µM
HT29 colon
  GI50: 1.69 µM
  TGI: 16 µM
NCI-H460 lung
  GI50: 0.508 µM
  TGI: 2.54 µM
SK-MEL-5 melanoma
  GI50: 1.3 µM
  TGI: 10.7 µM
A498 renal
  GI50: 1.59 µM
  TGI: 7.3 µM
UACC-257 melanoma
  GI50: 2.14 µM
  TGI: 6.94 µM
UACC-62 melanoma
  GI50: 1.28 µM
  TGI: 9.19 µM
OVCAR-4 ovarian
  GI50: 0.418 µM
  TGI: 14.8 µM
MDA-MB-435
  GI50: 2.15 µM
  TGI: 21.9 µM
IGROV1 ovarian
  GI50: 1.18 µM
  TGI: 6.44 µM
SK-OV-3 ovarian
  GI50: 0.756 µM
  TGI: 8.42 µM
786-0 renal
  GI50: 0.77 µM
  TGI: 5.97 µM
SF-539 CNS
  GI50: 1.83 µM
  TGI: 10.8 µM
SK-MEL-2 melanoma
  GI50: 2.38 µM
  TGI: 31.9 µM
NCI-H23 lung
  GI50: 3.11 µM
  TGI: 87.6 µM
EKVX NSCLC
  GI50: 0.665 µM
  TGI: 16 µM
MALME-3M melanoma
  GI50: 2.17 µM
  TGI: 7.21 µM
HCT-15 colon
  GI50: 0.436 µM
  TGI: 21.3 µM
T-47D breast
  GI50: 3.32 µM
  TGI: 21.3 µM
NCI-H522 lung
  GI50: 3.52 µM
  TGI: 17.9 µM
BT-549 breast
  GI50: 2.67 µM
  TGI: 41.9 µM
KM12 colon
  GI50: 0.78 µM
  TGI: 18.4 µM
RXF 393 renal
  GI50: 1.89 µM
  TGI: 6.77 µM
